Source: patent US20040235863A1, “Morpholine-bridged pyrazolopyridine derivatives” (priority 2001, published 2004)

Test system: rabbit aorta rings contracted with phenylephrine
Assay: Vasorelaxant effect in vitro
Design: species or system Rabbits
Settings: Oryctolagus cuniculus; isolated rabbit aorta rings, phenylephrine-induced contraction, concentration reducing height of contraction by 50%
Description: Vasorelaxant Effect in Vitro
Rabbits are stunned by a blow to the back of the neck and are exsanguinated. The aorta is removed, freed of adherent tissue, divided into rings 1.5 mm wide and put singly under tension in 5 ml organ baths containing carbogen-gassed Krebs-Henseleit solution at 37° C. with the following composition (mM): NaCl: 119; KCl: 4.8; CaCl2×2H2O: 1; MgSO4×7H2O: 1.4; KH2PO4: 1.2; NaHCO3: 25; glucose: 10. The force of contraction is detected with Statham UC2 cells, amplified and digitized via A/D converters (DAS-1802 HC, Keithley Instruments Munich) and recorded in parallel on chart recorders. A contraction is generated by adding phenylephrine to the bath cumulatively in increasing concentration. After several control cycles, the substance to be investigated is investigated in each further run in increasing dosage in each case, and the height of the contraction is compared with the height of the contraction reached in the last preceding run. The concentration necessary to reduce the height of the control value by 50% (IC50) is calculated from this. The standard application volume is 5 μl, and the DMSO content in the bath solution corresponds to 0.1%.

Compound `Nc1nc(-c2nn(Cc3ccccc3F)c3ncccc23)ncc1N1C2CCCC1COC2` [Example 2, 2-[1-(2-Fluorobenzyl)-1H-pyrazolo[3,4-b]pyridin-3-yl]-5-(3-oxa-9-azabicyclo[3.3.1]non-9-yl)-4-pyrimidinylamine] has an IC50 of 300 nM.
